# Counter-ions that a name gives are not always drawn.
# Assays:
# [1] = test system: trachea (contraction induced by potassium chloride); assay: antagonism of the effect of potassium chloride (contractions of isolated guinea pig trachea); format: cell-based; conditions: Cavia porcellus, 5 min, potassium chloride 1850 μg/ml, 5 min contact, 37° C.
# Method: (§1) To this end, the compounds were studied for their antagonistic effect on the contractions induced by various products according to the following procedure. A piece of trachea from a male three-colored guinea pig weighing 400 g on average is cut into rings and mounted (2.5 cm approximately) in an insulated organ tank which is thermostatted at 37° C. and filled with oxygenated Tyrode's solution. The isometric contractions induced by the various mediators are recorded using a Gould Statham UC2 sensor (Gould Inc. Oxnard, Calif., U.S.A.) or a Palmer Bioscience UF1 sensor connected to a potentiometric recorder ([…], Selb, FRG). At the start of the experiment, the fragment of trachea is subjected to a tension of 1 g and left to stand for 1 hour. The following mediator concentrations are used (concentrations generally inducing a maximum contraction): histamine dihydrochloride, 10 μg/ml; potassium chloride, 1850 μg/ml. The concentrations of agents used result in contractions which become maximal after 5 to 15 min. depending on the mediators and remain at a steady level thereafter. A concentration of the product studied is administered for each contraction and the product is left in contact with the trachea for 5 min. The possible inhibition obtained after this time is measured (percentage of variation in the amplitude of the contraction). The trachea is next washed for 15 seconds and left to stand for 10 min. approximately (time necessary to return to the base tonus) before inducing a new contraction. The water-insoluble products are diluted in 0.178% (v.v) (final bath concentration) dimethyl sulfoxide (DMSO). […] The 50% inhibitory concentrations (IC50) are calculated using an SAS (Statistical Analysis System) program based on the model of Bliss and […] (Bliss C. I. and […]. Biological Assay Ann. Rev. Physiol. 5, 479, 1943).
# [2] = test system: trachea (contraction induced by histamine); assay: antagonism of the effect of histamine (contractions of isolated guinea pig trachea); format: cell-based; conditions: Cavia porcellus, 5 min, histamine dihydrochloride 10 μg/ml, 5 min contact, 37° C.
# Method: as §1
# Zymosan Pleurisy = assay: pleurisy model with Zymosan in rats; format: in vivo, rat (male Sprague Dawley); conditions: po; rat, 100 mg/kg p.o. one hour before Zymosan (10 mg intrapleural), exudate measured 1 hour later; read-out: Zymosan Pleurisy volume pleural exudate
# Method: The compounds of the invention were also tested on the pleurisy model with Zymosan in rats ([…] et al. Pharmacol. Res., 21, 385, 1989) according to the following procedure: 10 mg of Zymosan in a volume of 0.15 ml of sterile 0.9% NaCl are injected into the pleural cavity of male Sprague Dawley rats mildly anesthetized with ether. The animals are sacrificed 1 hour later and the pleural exudate is withdrawn and measured. The animals are kept unfed from the evening before. The products are administered p.o. one hour before injection of the inflammation-inducing agent, at a dose of 100 mg/kg.
SMILES,IC50 [1] [µg/mL],IC50 [2] [µg/mL],change in vivo at 100 mg/kg (Zymosan Pleurisy) [%]
CCCCn1c(=O)c(NC)nc2ccccc21 [Compound 9],11.1,0.55,-29
CNc1nc2ccccc2n(CC=C(C)C)c1=O [Compound 15],,0.65,-5
C=CCn1c(=O)c(N(C)C)nc2ccccc21 [Compound 13],19.3,8.6,-43
C=CCn1c(=O)c(NC)nc2ccccc21 [Compound 12],9.1,1.1,-31
"CCCn1c(=O)c(N)nc2ccccc21.Cl [Compound 5, 1-n-propyl-1,2-dihydro-2-oxo-3-aminoquinoxaline hydrochloride]",19.3,4.6,-21
C=CCn1c(=O)c(N)nc2ccccc21 [Compound 11],21,5.9,-33
CC(C)=CCn1c(=O)c(N(C)C)nc2ccccc21 [Compound 16],,13.5,
"CC(C)(O)CCn1c(=O)c(N)nc2ccccc21 [Compound 17, 1-(3-methyl-3-hydroxy)butyl-1,2-dihydro-2-oxo-3-aminoquinoxaline hydrochloride]",45,23,
"Cn1c(=O)c2[nH]cnc2n(C)c1=O [Theophylline, reference compound]",30,30,
"CC(C)=CCn1c(=O)c(N)nc2ccccc21 [Compound 14, hydrochloride]",7.4,2.6,-14
CCCCn1c(=O)c(N(C)C)nc2ccccc21 [Compound 10],45,5.7,-47
"CCCn1c(=O)c(NC)nc2ccccc21.Cl [Compound 6, 1-n-propyl-1,2-dihydro-2-oxo-3-methylaminoquinoxaline hydrochloride]",4.7,6.4,-27
CCCCn1c(=O)c(N)nc2ccccc21 [Compound 8],9.6,1.7,4
"CCCn1c(=O)c(N(C)C)nc2ccccc21.Cl [Compound 7, 1-n-propyl-1,2-dihydro-2-oxo-3-dimethylaminoquinoxaline hydrochloride]",28,10.7,-44
